Results on 29 molecules are retold here after patent US8389500B2, “Fused heterocyclic compounds as ion channel modulators” (Gilead Sciences, Inc., priority 2008, dated 2013).

In the assay the target is T1, wild-type human cardiac sodium channel, hNav1.5 (late sodium current) (Homo sapiens, UniProt Q14524).
T1 construct: host or cells: HEK293
T1 sequence (Q14524 whole entry): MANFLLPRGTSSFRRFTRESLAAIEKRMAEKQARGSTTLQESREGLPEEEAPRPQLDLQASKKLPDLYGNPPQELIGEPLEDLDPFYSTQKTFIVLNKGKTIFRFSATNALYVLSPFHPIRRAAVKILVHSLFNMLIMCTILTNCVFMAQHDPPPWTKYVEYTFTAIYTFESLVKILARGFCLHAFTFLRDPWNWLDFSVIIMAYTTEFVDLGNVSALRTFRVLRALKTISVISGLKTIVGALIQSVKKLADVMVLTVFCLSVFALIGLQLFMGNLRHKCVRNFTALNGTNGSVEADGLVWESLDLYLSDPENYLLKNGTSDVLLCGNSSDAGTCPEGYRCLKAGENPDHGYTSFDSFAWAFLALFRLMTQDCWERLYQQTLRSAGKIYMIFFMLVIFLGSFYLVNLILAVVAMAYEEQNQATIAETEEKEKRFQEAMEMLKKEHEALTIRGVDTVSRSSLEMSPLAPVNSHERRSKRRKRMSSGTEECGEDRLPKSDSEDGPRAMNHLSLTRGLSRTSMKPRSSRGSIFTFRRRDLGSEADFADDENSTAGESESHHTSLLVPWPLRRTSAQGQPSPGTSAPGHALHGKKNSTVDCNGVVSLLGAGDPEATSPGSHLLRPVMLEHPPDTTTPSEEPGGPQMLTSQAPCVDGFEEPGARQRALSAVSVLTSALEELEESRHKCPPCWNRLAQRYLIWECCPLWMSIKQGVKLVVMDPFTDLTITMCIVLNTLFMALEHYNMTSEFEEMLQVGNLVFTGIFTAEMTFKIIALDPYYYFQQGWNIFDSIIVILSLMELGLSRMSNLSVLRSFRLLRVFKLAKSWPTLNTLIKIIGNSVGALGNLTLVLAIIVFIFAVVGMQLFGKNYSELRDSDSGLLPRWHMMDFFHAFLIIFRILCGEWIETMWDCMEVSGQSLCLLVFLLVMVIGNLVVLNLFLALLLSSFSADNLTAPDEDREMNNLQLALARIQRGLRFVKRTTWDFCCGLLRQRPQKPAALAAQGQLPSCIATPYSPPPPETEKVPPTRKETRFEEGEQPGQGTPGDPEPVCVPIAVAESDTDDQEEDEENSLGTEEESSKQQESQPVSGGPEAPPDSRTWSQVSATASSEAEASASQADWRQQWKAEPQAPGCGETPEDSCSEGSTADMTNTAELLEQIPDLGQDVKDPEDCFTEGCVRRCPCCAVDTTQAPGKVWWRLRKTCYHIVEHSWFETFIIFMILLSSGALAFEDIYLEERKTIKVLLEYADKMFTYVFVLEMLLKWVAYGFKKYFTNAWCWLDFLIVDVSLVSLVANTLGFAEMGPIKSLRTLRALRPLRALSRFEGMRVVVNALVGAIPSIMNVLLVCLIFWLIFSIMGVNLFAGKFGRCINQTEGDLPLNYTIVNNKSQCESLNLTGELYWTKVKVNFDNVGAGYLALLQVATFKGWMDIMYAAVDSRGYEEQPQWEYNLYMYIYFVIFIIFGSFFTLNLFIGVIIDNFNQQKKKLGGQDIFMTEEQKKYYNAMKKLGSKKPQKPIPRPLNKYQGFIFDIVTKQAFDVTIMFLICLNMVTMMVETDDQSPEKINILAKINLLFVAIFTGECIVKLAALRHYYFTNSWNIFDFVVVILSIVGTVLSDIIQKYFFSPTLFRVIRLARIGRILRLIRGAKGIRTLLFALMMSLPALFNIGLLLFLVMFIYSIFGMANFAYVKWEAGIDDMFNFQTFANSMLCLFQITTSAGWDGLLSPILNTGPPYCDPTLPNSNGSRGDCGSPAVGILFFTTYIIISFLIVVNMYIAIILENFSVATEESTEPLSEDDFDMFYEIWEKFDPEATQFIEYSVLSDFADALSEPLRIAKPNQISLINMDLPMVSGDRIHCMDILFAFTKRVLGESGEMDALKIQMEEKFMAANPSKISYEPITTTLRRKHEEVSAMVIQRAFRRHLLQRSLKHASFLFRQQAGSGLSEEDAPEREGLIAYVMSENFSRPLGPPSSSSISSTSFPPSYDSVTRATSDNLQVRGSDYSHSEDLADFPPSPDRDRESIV
The assay is described as follows: Late INa screening assay (PatchXpress whole cell patch clamp). The assay is classed as cell-based. As to conditions: 10 μM test compound; HEK293 hNav1.5; late INa generated with 10 μM Tefluthrin (some experiments 50 nM ATX II); read-out: Late INa % blk (10 μM test cmpd). The method in brief: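 Late sodium current block was assessed by automated whole cell patch clamp on a PatchXpress 7000A using HEK293 cells stably expressing wild-type human hNav1.5 without beta subunits. Late current was induced with 10 μM Tefluthrin or 50 nM ATX II. Channels were stepped from −120 mV to −20 mV for 250 ms at 0.1 Hz at 24-27° C. Current was normalized to 0Na baseline and expressed as percent block.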
(Patch clamp records ionic current or voltage across a cell membrane.)
Consider `N#Cc1cc(NS(=O)(=O)C2CC2)ccc1-c1ccc(C(F)(F)F)cc1` [PT-130, N-(2-cyano-4′-(trifluoromethyl)biphenyl-4-yl)cyclopropanesulfonamide], for which the inhibition at 10 µM was 26%. Turning to `CS(=O)(=O)Nc1cccc(-c2ccc(Oc3ccc(C(=O)O)cc3)cc2)c1` [PT-131, 4-(3′-(methylsulfonamido)biphenyl-4-yloxy)benzoic acid], the inhibition at 10 µM was 20.8%. With `CS(=O)(=O)Nc1cccc(-c2ccc(C(F)(F)F)c(F)c2)c1` [PT-132, N-(3′-fluoro-4′-(trifluoromethyl)biphenyl-3-yl)methanesulfonamide], the inhibition at 10 µM amounted to 65.9%. `Cc1cc(N(Cc2ccc(CC(=O)O)cc2)S(=O)(=O)C2CC2)ccc1-c1ccc(Oc2ccccc2)cc1` [PT-133, 2-(4-((N-(2-methyl-4′-phenoxybiphenyl-4-yl)cyclopropanesulfonamido)methyl)phenyl)acetic acid]: the inhibition at 10 µM came to 34.1%. With `COc1cc(N(Cc2ccc(C(=O)O)cc2)S(C)(=O)=O)ccc1-c1ccc(Oc2ccccc2)cc1` [PT-134, 4-((N-(2-methoxy-4′-phenoxybiphenyl-4-yl)methylsulfonamido)methyl)benzoic acid] the figure was 3.9%.

Regarding `CS(=O)(=O)N(Cc1ccc(-c2nnn[nH]2)cc1)c1ccc(-c2ccc(Oc3ccccc3)cc2)c(Cl)c1` [PT-135, N-(4-(1H-tetrazol-5-yl)benzyl)-N-(2-chloro-4′-phenoxybiphenyl-4-yl)methanesulfonamide], the inhibition at 10 µM worked out at 9.7%. The result for `Cc1cc(N(Cc2ccc(C(=O)O)cc2)S(C)(=O)=O)ccc1-c1ccc(Oc2ccc(F)cc2)cc1` [PT-136, 4-((N-(4′-(4-fluorophenoxy)-2-methylbiphenyl-4-yl)methylsulfonamido)methyl)benzoic acid] reads 8.8%; that for `CNC(=O)c1cc(N(Cc2ccc(S(C)(=O)=O)cc2)S(C)(=O)=O)ccc1-c1ccc(Oc2ccccc2)cc1` [PT-138, N-methyl-4-(N-(4-(methylsulfonyl)benzyl)methylsulfonamido)-4′-phenoxybiphenyl-2-carboxamide], 12.6%.

Turning to `CNC(=O)c1cc(NS(=O)(=O)C2CC2)ccc1-c1ccc(Oc2ccccc2)cc1` [PT-139, 4-(cyclopropanesulfonamido)-N-methyl-4′-phenoxybiphenyl-2-carboxamide], the inhibition at 10 µM was determined as 43.7%. `CC(C)NC(=O)c1cc(NS(C)(=O)=O)ccc1-c1ccc(Oc2ccccc2)cc1` [PT-140, N-isopropyl-4-(methylsulfonamido)-4′-phenoxybiphenyl-2-carboxamide]: the inhibition at 10 µM stood at 47.4%. Regarding `Cc1cc(N(Cc2ccc(C(=O)O)cc2)S(C)(=O)=O)ccc1-c1ccc(Oc2ccccc2)c(F)c1` [PT-141, 4-((N-(3′-fluoro-2-methyl-4′-phenoxybiphenyl-4-yl)methylsulfonamido)methyl)benzoic acid], the inhibition at 10 µM is 23.8%.

For the molecule `Cc1cc(-c2ccc(Oc3ccccc3)cc2)c(F)cc1N(Cc1ccc(C(=O)O)cc1)S(C)(=O)=O` [PT-142, 4-((N-(2-fluoro-5-methyl-4′-phenoxybiphenyl-4-yl)methylsulfonamido)methyl)benzoic acid], the inhibition at 10 µM was 2.7%. With `Cc1cc(N(Cc2ccc([N+](=O)[O-])cc2)S(C)(=O)=O)ccc1-c1ccc(Oc2ccccc2)cc1` [PT-143, N-(2-methyl-4′-phenoxybiphenyl-4-yl)-N-(4-nitrobenzyl)methanesulfonamide] the figure was 8.7%; with `Cc1cc(NS(C)(=O)=O)ccc1-c1ccc(OC(C)C)cc1` [PT-144, N-(4′-isopropoxy-2-methylbiphenyl-4-yl)methanesulfonamide], 44.7%; with `CCOC(=O)c1ccc(CN(c2ccc(-c3ccc(OC(C)C)cc3)c(C)c2)S(C)(=O)=O)cc1` [PT-145, ethyl 4-((N-(4′-isopropoxy-2-methylbiphenyl-4-yl)methylsulfonamido)methyl)benzoate], 17.1%. Take `Cc1cc(N(Cc2ccc(C(=O)O)cc2)S(C)(=O)=O)ccc1-c1ccc(OC(C)C)cc1` [PT-146, 4-((N-(4′-isopropoxy-2-methylbiphenyl-4-yl)methylsulfonamido)methyl)benzoic acid]: the inhibition at 10 µM amounted to 3.65%. Take `CC(C)Oc1ccc(-c2ccc(NS(C)(=O)=O)c(Cl)c2)cc1` [PT-148, N-(3-chloro-4′-isopropoxybiphenyl-4-yl)methanesulfonamide]: the inhibition at 10 µM was determined as 36.2%. `CS(=O)(=O)Nc1ccc(-c2ccc(Oc3ccc(F)cc3)cc2)cc1Cl` [PT-149, N-(3-chloro-4′-(4-fluorophenoxy)biphenyl-4-yl)methanesulfonamide]: the inhibition at 10 µM came out at 58%. With `Cc1cc(NS(=O)(=O)C2CC2)ccc1-c1ccc(C#N)cc1` [PT-150, N-(4′-cyano-2-methylbiphenyl-4-yl)cyclopropanesulfonamide], the inhibition at 10 µM was 22.5%. Consider `Cc1cc(NS(=O)(=O)C2CC2)ccc1-c1ccc(OC(C)C)cc1` [PT-151, N-(4′-isopropoxy-2-methylbiphenyl-4-yl)cyclopropanesulfonamide], for which the inhibition at 10 µM was 32.6%. As for `CC(C)Oc1ccc(-c2ccc(NS(=O)(=O)C3CC3)c(C#N)c2)cc1` [PT-152, N-(3-cyano-4′-isopropoxybiphenyl-4-yl)cyclopropanesulfonamide], the inhibition at 10 µM came out at 29%.

In the case of `CS(=O)(=O)N(Cc1ccc(C(=O)O)cc1)c1cccc(-c2ccc(C(F)(F)F)c(F)c2)c1` [PT-154, 4-((N-(3′-fluoro-4′-(trifluoromethyl)biphenyl-3-yl)methylsulfonamido)methyl)benzoic acid], the inhibition at 10 µM is 7%. As to `CS(=O)(=O)N(Cc1ccc(C(=O)O)cc1)c1ccc(-c2ccc(Oc3ccccc3)cc2)cc1` [PT-156, 4-((N-(4′-phenoxybiphenyl-4-yl)methylsulfonamido)methyl)benzoic acid], the inhibition at 10 µM worked out at 7.9%. With `CC(C)Oc1ccc(-c2ccc(NS(=O)(=O)C3CC3)c(-c3nn[nH]n3)c2)cc1` [PT-157, N-(4′-isopropoxy-3-(2H-tetrazol-5-yl)biphenyl-4-yl)cyclopropanesulfonamide] the figure was 5.8%; with `Cc1cc(NS(=O)(=O)C2CC2)ccc1-c1ccc(-c2nn[nH]n2)cc1` [PT-158, N-(2-methyl-4′-(2H-tetrazol-5-yl)biphenyl-4-yl)cyclopropanesulfonamide], 2.8%; with `COP(=O)(O)c1cc(-c2ccc(Oc3ccc(F)cc3)cc2)ccc1NS(C)(=O)=O` [PT-159, methyl hydrogen 4′-(4-fluorophenoxy)-4-(methylsulfonamido)biphenyl-3-ylphosphonate], 36.1%.

With `CS(=O)(=O)N(Cc1ccc(CC(=O)O)cc1)c1ccc(-c2ccc(Oc3ccccc3)cc2)c(Cl)c1` [PT-161, 2-(4-((N-(2-chloro-4′-phenoxybiphenyl-4-yl)methylsulfonamido)methyl)phenyl)acetic acid], the inhibition at 10 µM worked out at 30.9%. The result for `O=C(NCCO)c1cc(-c2ccc(C(F)(F)F)cc2)ccc1NS(=O)(=O)C1CC1` [PT-162, 4-(cyclopropanesulfonamido)-N-(2-hydroxyethyl)-4′-(trifluoromethyl)biphenyl-3-carboxamide] reads -5.3%. In the case of `CS(=O)(=O)Nc1ccc(-c2ccc(Oc3ccccc3)cc2)c(N)c1` [PT-163, N-(2-amino-4′-phenoxybiphenyl-4-yl)methanesulfonamide], the inhibition at 10 µM turned out to be 54.7%.
